Results on four compounds are retold here after patent US20140066469A1, “TREATMENT OF DISEASES ASSOCIATED WITH INFLAMMATION” (Department of Veterans Affairs, priority 2012, published 2014).

Molecules are shown by their SMILES. Where two headings read alike, the source gives them in different places.

In data set [1] the test system is retinal ganglion cell layer (GCL). From the text:
After 3 months, mice were sacrificed, and their eyes were carefully isolated by microdissection. The eyes were fixed in formalin and sectioned to allow visualization of the retina.

For data set [2] the following is noted: currently FDA-approved doses; cited from earlier work.
Data set [3] relates to inflammatory cytokines in OA synovium. The data set is described as follows: Multiplex cytokine analysis of synovium from DMM joints. Format: in vivo, C57BL6 (B6) mice. The conditions noted are these: HCQ sulfate 100 mg/kg/day or atorvastatin calcium 40 mg/kg/day, 3 months; vs vehicle. The method, then:
FIG. 14. […] 3 months after surgery, the mice were sacrificed and the synovium of the operated joint isolated. The collected synovial membrane tissues were used to generate protein lysates, on which multiplex cytokine analysis was performed using the Luminex System and the Bio-Rad BioPlex 23plex mouse cytokine detection kit. Each sample was run in triplicate. […] (A) Heatmap presenting the relative levels (as compared to mean levels in the vehicle-control treated group). (B) Bar-graph display of mean cytokine levels for the indicated treatment groups.
After 3 months, mice were sacrificed, their joints harvested, and synovial tissue isolated from the joint by microdissection. The synovial tissues were homogenized and centrifuged, and the resulting supernatants were assayed for levels of inflammatory cytokines by using a multiplex bead-based cytokine assay (BioRad Laboratories, Hercules, Calif.).

In the next data set the test system is retina. The conditions noted are these: cited from earlier work; for ophthalmoscopically visualized loss of retinal pigmented epithelium (eye toxicity): treated humans after 5 years.
The next data set concerns non-erosive OA. The settings on record: general non-erosive human OA; cited from earlier work.
For data set [4] the following is noted: cited from earlier work.
The subject of data set [5] is osteoarthritis (OA) induced by destabilization of the medial meniscus (DMM). The data set is described as follows: DMM mouse model of OA, histological scoring of stifle joints. The conditions noted are these: Example 1; HCQ sulfate 100 mg/kg/day and/or atorvastatin calcium 40 mg/kg/day, oral gavage, 12 weeks; t test. Format: in vivo, C57BL6 (B6) mice. The method, then: Experiments were performed under protocols approved by the Stanford University Committee of Animal Research and in accordance with NIH guidelines.

Data set [6] is described as follows: Patient case example, LDL cholesterol (Example 14). Format: in vivo, humans. The settings on record: person, baseline 140 mg/dL, over several months.
The conditions of data set [7]: oral; cited from earlier work.
Where [8] appears, read: coadministered with HCQ vs methotrexate alone.

One may read the Tmax as the time at which the peak concentration occurs. As usually defined, the Vd is a proportionality between amount in the body and measured concentration, not a real space. With `CCN(CCO)CCCC(C)Nc1ccnc2cc(Cl)ccc12` (centres unmarked) [HCQ, hydroxychloroquine], the “number of nuclei in the GCL (viable retinal ganglion cells)” value in data set [1] (mouse, in vivo) is listed as “significantly lower”. Moreover, in data set [2], the “Oral Bioavailability” value was 89%, the T1/2 is 41 days, the “Tmax” value is 0.083 to 0.12 days and the volume of distribution (Vd) was 605 L. Besides, the “levels of inflammatory cytokines in OA synovium” value in data set [3] is reported as “lower”. Besides, in the data set on retina (after 5-7 years of use), the retinal toxicity was ~1%. Moreover, the “prevalence of retinal toxicity” value with retina (conventional doses of HCQ (400 mg/day common)) is listed as 6.8 users per 1,000. Also, in the data set on retina (patients), the “clinically apparent eye toxicity” value was “less than 1%”. Moreover, in the data set on retina, the “ophthalmoscopically visualized loss of retinal pigmented epithelium (eye toxicity)” value is on record as 1%. In addition, in the data set on retina (treated patients over 5 years), the “physician discontinuation for earlier eye problems” value is recorded as ~7%. Besides, in the data set with non-erosive OA, the “disease-modifying or pain-reducing activity” value is “failed to demonstrate”. In addition, the “AUC of HCQ” value in data set [4] (between dosing occasions) was “no significant difference”. Besides, in data set [5], the “Osteophyte score (osteophyte formation)” value is on record as “not as potent” and the Synovitis score entry was “not as potent”.

As to `CCN(CC)CCCC(C)Nc1ccnc2cc(Cl)ccc12` (centres unmarked) [chloroquine], the “ophthalmoscopically visualized loss of retinal pigmented epithelium (eye toxicity)” value with retina is recorded as “considerably higher”.

Consider `CC(C)c1c(C(=O)Nc2ccccc2)c(-c2ccccc2)c(-c2ccc(F)cc2)n1CC[C@@H](O)C[C@@H](O)CC(=O)O` [Atorvastatin, atorvastatin], for which the “number of nuclei in the GCL (viable retinal ganglion cells)” value in data set [1] (3 months, vs vehicle, two-tailed t test) is listed as “did not differ”. Also, the “disarrangement of the GCL” value in [1] (HCQ sulfate 100 mg/kg/day and/or atorvastatin calcium 40 mg/kg/day, 3 months) was “no disarrangement”. For the same compound, the LDL cholesterol in data set [6] is 115 mg/day. In addition, the “systemic availability for HMG-CoA reductase activity” value in data set [7] is listed as “approximately 30%”. Moreover, in data set [3], the “levels of inflammatory cytokines in OA synovium” value is on record as “lower”.

`CN(Cc1cnc2nc(N)nc(N)c2n1)c1ccc(C(=O)N[C@@H](CCC(=O)O)C(=O)O)cc1` [methotrexate]: in [4] (setting [8]), the “maximum methotrexate concentration (Cmax)” value was “decreased” and the “mean area under the concentration-time curve (AUC) for methotrexate” value is given as “increased”.
